ChEMBL document CHEMBL1201862, “PubChem BioAssay data set” (2004)
Calls of active or inactive are those of the source.

Target: T1, Heat shock factor protein 1 (Mus musculus, UniProt P38532)
T1 sequence (P38532 whole entry): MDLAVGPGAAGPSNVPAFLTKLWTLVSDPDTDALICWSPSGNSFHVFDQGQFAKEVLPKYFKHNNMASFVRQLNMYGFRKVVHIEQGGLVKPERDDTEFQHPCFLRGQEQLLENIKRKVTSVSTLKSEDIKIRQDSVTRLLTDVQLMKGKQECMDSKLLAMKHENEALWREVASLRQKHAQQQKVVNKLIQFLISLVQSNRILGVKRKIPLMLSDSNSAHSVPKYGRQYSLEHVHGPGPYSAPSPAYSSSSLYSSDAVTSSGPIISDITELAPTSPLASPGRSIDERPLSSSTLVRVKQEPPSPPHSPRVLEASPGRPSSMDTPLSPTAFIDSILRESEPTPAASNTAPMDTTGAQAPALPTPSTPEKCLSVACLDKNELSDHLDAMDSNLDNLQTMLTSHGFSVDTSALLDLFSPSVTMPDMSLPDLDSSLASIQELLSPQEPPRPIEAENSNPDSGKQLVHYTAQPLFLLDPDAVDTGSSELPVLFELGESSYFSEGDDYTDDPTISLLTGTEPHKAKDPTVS
Experiment: HSF1 potentiators in luciferase reporter cells, confirmation, cell-based, NIH3T3, luminescence, dose retest (AID 435004);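 further: stress induced by proteasome inhibitor MG132 added 30 min after compound; luciferase reporter driven by HSF1 response element in NIH3T3 cells; actives raise luminescence as potentiators of the MG132 stress response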
Format: functional
Conditions: not given
In the case of `Clc1ccc(-n2cc(COCc3ccccc3)nn2)cc1`, the EC50 was > 260 µM (inconclusive).

Target: T2, Corticotropin-releasing factor receptor 2/Corticotropin-releasing factor-binding protein (Homo sapiens, UniProt P24387+Q13324)
T2 sequence (Q13324 whole entry): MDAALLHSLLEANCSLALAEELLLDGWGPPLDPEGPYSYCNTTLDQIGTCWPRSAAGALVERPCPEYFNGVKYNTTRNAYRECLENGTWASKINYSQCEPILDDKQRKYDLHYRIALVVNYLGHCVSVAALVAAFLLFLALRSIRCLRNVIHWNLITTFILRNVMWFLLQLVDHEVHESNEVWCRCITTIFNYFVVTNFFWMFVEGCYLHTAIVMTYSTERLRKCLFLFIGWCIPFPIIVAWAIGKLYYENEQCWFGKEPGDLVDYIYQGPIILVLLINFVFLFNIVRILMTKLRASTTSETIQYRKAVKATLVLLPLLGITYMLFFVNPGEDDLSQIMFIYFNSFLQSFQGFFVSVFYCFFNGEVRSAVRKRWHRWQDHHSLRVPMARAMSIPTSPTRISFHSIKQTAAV
T2 sequence (P24387 whole entry): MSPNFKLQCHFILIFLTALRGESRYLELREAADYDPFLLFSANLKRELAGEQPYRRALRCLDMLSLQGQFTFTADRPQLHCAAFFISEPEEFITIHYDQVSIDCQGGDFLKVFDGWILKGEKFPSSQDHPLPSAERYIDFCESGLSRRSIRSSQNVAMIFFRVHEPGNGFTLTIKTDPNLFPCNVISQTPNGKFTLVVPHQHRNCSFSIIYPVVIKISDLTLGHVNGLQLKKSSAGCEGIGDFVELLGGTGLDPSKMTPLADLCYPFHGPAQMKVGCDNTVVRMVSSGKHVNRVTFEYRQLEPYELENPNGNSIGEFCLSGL
Experiment: activators of CRF receptor 2 with binding protein – uHTS hits, confirmation (AID 602473)
Format: functional
Conditions: read-out: EC50_Mean
In the case of `CCC(=O)Nc1ccc(NC(=O)c2oc3ccccc3c2C)cc1`, the EC50 was > 53 µM (inactive).
With `Clc1ccc(-n2cc(COCc3ccccc3)nn2)cc1` the EC50 was > 53 µM (inactive).
With `CC1CCN(S(=O)(=O)c2ccc3c(c2)NC(=O)CS3)CC1` the EC50 was > 53 µM (inactive).

Tested on: P388/ADR
Experiment: cells
Format: functional
Conditions: Mus musculus
With `OCC1OC(n2cnc3c2NC=NC[C@H]3O)C(O)C1O` (stereo not given in full) the GI50 was > 366 µM (inactive).
For `CCCCCCCCCCCCOCCCOP(=O)([O-])OCC[N+](C)(C)C`, the GI50 was > 100 µM (inactive).
In the case of `O=C1c2ccccc2C(O)(C(=O)O)C1(O)CC=C(Cl)Cl` (stereo not given), the GI50 was > 70.3 µM (inactive).
In the case of `CCn1c(=O)c(C(=O)O)c(Cl)c2cc3c(cc21)OCO3`, the GI50 was > 100 µM (inactive).
For `CC1(C)N=C(N)N=C(N)N1c1ccc(CCc2ccccc2)cc1`, the GI50 was 22.2 µM (inactive).
For `C[C@]12CC[C@H](OC3OC(CO)C(O)C(O)C3O)C[C@H]1CC[C@@H]1[C@@H]2CC[C@]2(C)[C@@H](C3=CCOC3=O)CC[C@]12O` (stereo not given in full) [ACTODIGIN], the GI50 was 6.12 µM (inactive).
With `CC(C)CCCC(C)[C@H]1CCC(C2C[C@@H](O)[C@@H]3CC(O)[C@@H](O)C[C@]3(CO)C2=O)[C@]1(C)CCO` (stereo not given in full) the GI50 was 27 µM (inactive).
With `CC(C)c1oc(=O)cc2c1C(O)C1OC(=O)C3(C)C(O)C4OC4C2(C)C13` (stereo not given) [NAGILACTONE] the GI50 was 2.52 µM (inactive).
In the case of `CS(=O)(=O)OCCCNCCCOS(C)(=O)=O`, the GI50 was 392 µM (inactive).
For `O=C(O)C(Cc1cccs1)NC(=O)C(F)(F)F` (stereo not given), the GI50 was > 100 µM (inactive).
For `CC1CC(C)(O)C2C3(C)CCCC2(COC3=O)C12CCC1(CCOC1=O)O2` (stereo not given), the GI50 was 141 µM (inactive).
In the case of `Nc1ncnc2c1nc(Cl)n2[C@@H]1O[C@@H]2COP(=O)(O)O[C@H]2[C@H]1O` [TOCLADESINE], the GI50 was 4.53 µM (inactive).

Tested on: H4
Experiment: Luminescence Cell-Based Dose Response HTS to Identify Activators of 5'UTR Stem-Loop Driven Prion Protein mRNA Translation in H4 Neuroglioblastoma Cells. [Related pubchem assays: 1829 (Project Summary), 1814 (Primary HTS)]
Format: functional
Conditions: Homo sapiens
For `CCN1CCN(/C=N/c2nc(C)cs2)CC1`, the EC50 was > 120 µM (not active).
With `C/C(=N/NC(=O)c1ccoc1C)C12CC3CC(CC(C3)C1)C2` the EC50 was 42.6 µM (active).
For `CC(=O)Nc1ccc(S(=O)(=O)N/N=C/c2ccc(C)s2)cc1`, the EC50 was 53.5 µM (active).
For `O=C(CCl)Nc1cccc(S(=O)(=O)NC2=NCCC2)c1`, the EC50 was > 120 µM (not active).

Tested on: not listed separately
Experiment: Luminescence Cell-Based Dose Confirmation HTS to Identify Activators of 5'UTR Stem-Loop Driven Alpha-Synuclein mRNA Translation in H4 Neuroglioblastoma Cells. [Related pubchem assays: 1829 (Project Summary), 1814 (Primary HTS)]
Format: functional
Conditions: not given
For `CCN1CCN(/C=N/c2nc(C)cs2)CC1`, the EC50 was 14.2 µM (active).
With `C/C(=N/NC(=O)c1ccoc1C)C12CC3CC(CC(C3)C1)C2` the EC50 was > 120 µM (not active).
With `CC(=O)Nc1ccc(S(=O)(=O)N/N=C/c2ccc(C)s2)cc1` the EC50 was 5.39 µM (active).
With `O=C(CCl)Nc1cccc(S(=O)(=O)NC2=NCCC2)c1` the EC50 was 45.1 µM (active).

Tested on: not listed separately
Experiment: Luminescence Cell-Based Dose Response HTS to Identify Activators of Luciferase Translation or Activity in H4 […] Cells. [Related pubchem assays: 1829 (Project Summary), 1814 (Primary HTS)]
Format: functional
Conditions: not given
With `CCN1CCN(/C=N/c2nc(C)cs2)CC1` the EC50 was 51.9 µM (active).
For `C/C(=N/NC(=O)c1ccoc1C)C12CC3CC(CC(C3)C1)C2`, the EC50 was > 120 µM (not active).
For `CC(=O)Nc1ccc(S(=O)(=O)N/N=C/c2ccc(C)s2)cc1`, the EC50 was 33.8 µM (active).
In the case of `O=C(CCl)Nc1cccc(S(=O)(=O)NC2=NCCC2)c1`, the EC50 was 62.6 µM (active).

Target: T2, Corticotropin-releasing factor receptor 2/Corticotropin-releasing factor-binding protein
Experiment: Dose Response confirmation of uHTS hits for small molecule antagonists of the CRF-binding protein and CRF-R2 receptor complex.
Format: functional
Conditions: read-out: IC50_Mean
With `CCC(=O)Nc1ccc(NC(=O)c2oc3ccccc3c2C)cc1` the IC50 was > 47.1 µM (inactive).
With `Clc1ccc(-n2cc(COCc3ccccc3)nn2)cc1` the IC50 was > 47.1 µM (inactive).
For `CC1CCN(S(=O)(=O)c2ccc3c(c2)NC(=O)CS3)CC1`, the IC50 was > 47.1 µM (inactive).

Tested on: P388
Experiment: cells
Format: functional
Conditions: Mus musculus
For `OCC1OC(n2cnc3c2NC=NC[C@H]3O)C(O)C1O` (stereo not given in full), the GI50 was > 366 µM (inactive).
With `CCCCCCCCCCCCOCCCOP(=O)([O-])OCC[N+](C)(C)C` the GI50 was 27.9 µM (inactive).
With `O=C1c2ccccc2C(O)(C(=O)O)C1(O)CC=C(Cl)Cl` (stereo not given) the GI50 was > 125 µM (inactive).
In the case of `CCn1c(=O)c(C(=O)O)c(Cl)c2cc3c(cc21)OCO3`, the GI50 was > 100 µM (inactive).
In the case of `CC1(C)N=C(N)N=C(N)N1c1ccc(CCc2ccccc2)cc1`, the GI50 was < 0.01 µM (active).
For `C[C@]12CC[C@H](OC3OC(CO)C(O)C(O)C3O)C[C@H]1CC[C@@H]1[C@@H]2CC[C@]2(C)[C@@H](C3=CCOC3=O)CC[C@]12O` (stereo not given in full) [ACTODIGIN], the GI50 was 7.76 µM (inactive).
With `CC(C)CCCC(C)[C@H]1CCC(C2C[C@@H](O)[C@@H]3CC(O)[C@@H](O)C[C@]3(CO)C2=O)[C@]1(C)CCO` (stereo not given in full) the GI50 was 17.5 µM (inactive).
In the case of `CC(C)c1oc(=O)cc2c1C(O)C1OC(=O)C3(C)C(O)C4OC4C2(C)C13` (stereo not given) [NAGILACTONE], the GI50 was 0.365 µM (active).
In the case of `CS(=O)(=O)OCCCNCCCOS(C)(=O)=O`, the GI50 was 418 µM (inactive).
For `O=C(O)C(Cc1cccs1)NC(=O)C(F)(F)F` (stereo not given), the GI50 was > 57.9 µM (inactive).
In the case of `CC1CC(C)(O)C2C3(C)CCCC2(COC3=O)C12CCC1(CCOC1=O)O2` (stereo not given), the GI50 was > 250 µM (inactive).
For `Nc1ncnc2c1nc(Cl)n2[C@@H]1O[C@@H]2COP(=O)(O)O[C@H]2[C@H]1O` [TOCLADESINE], the GI50 was 36.7 µM (inactive).

Tested on: SN12K1
Experiment: cells
Format: functional
Conditions: Homo sapiens
With `OCC1OC(n2cnc3c2NC=NC[C@H]3O)C(O)C1O` (stereo not given in full) the GI50 was 224 µM (inactive).
With `CCCCCCCCCCCCOCCCOP(=O)([O-])OCC[N+](C)(C)C` the GI50 was > 100 µM (inactive).
In the case of `O=C1c2ccccc2C(O)(C(=O)O)C1(O)CC=C(Cl)Cl` (stereo not given), the GI50 was > 125 µM (inactive).
For `CCn1c(=O)c(C(=O)O)c(Cl)c2cc3c(cc21)OCO3`, the GI50 was > 100 µM (inactive).
For `CC1(C)N=C(N)N=C(N)N1c1ccc(CCc2ccccc2)cc1`, the GI50 was 0.533 µM (active).
In the case of `C[C@]12CC[C@H](OC3OC(CO)C(O)C(O)C3O)C[C@H]1CC[C@@H]1[C@@H]2CC[C@]2(C)[C@@H](C3=CCOC3=O)CC[C@]12O` (stereo not given in full) [ACTODIGIN], the GI50 was 11 µM (inactive).
With `CC(C)CCCC(C)[C@H]1CCC(C2C[C@@H](O)[C@@H]3CC(O)[C@@H](O)C[C@]3(CO)C2=O)[C@]1(C)CCO` (stereo not given in full) the GI50 was 18.7 µM (inactive).
With `CC(C)c1oc(=O)cc2c1C(O)C1OC(=O)C3(C)C(O)C4OC4C2(C)C13` (stereo not given) [NAGILACTONE] the GI50 was 1.46 µM (inactive).
For `CS(=O)(=O)OCCCNCCCOS(C)(=O)=O`, the GI50 was 753 µM (inactive).
In the case of `O=C(O)C(Cc1cccs1)NC(=O)C(F)(F)F` (stereo not given), the GI50 was > 100 µM (inactive).
With `CC1CC(C)(O)C2C3(C)CCCC2(COC3=O)C12CCC1(CCOC1=O)O2` (stereo not given) the GI50 was > 250 µM (inactive).
With `Nc1ncnc2c1nc(Cl)n2[C@@H]1O[C@@H]2COP(=O)(O)O[C@H]2[C@H]1O` [TOCLADESINE] the GI50 was 7.26 µM (inactive).
